# According to patent US8791098B2 (priority 2008, dated 2014):
# Like-named read-outs stand apart in the source and are kept apart here.
# How the values were obtained:
# [1] = tested on: U-2 OS human osteosarcoma cells; test: cells; assay type: cell-based; conditions: average of two measurements
# Experimental: (§1) Cytotoxicity testing of pretubulysin (AU827), N-desmethyl-pretubulysin (AU816) and Tubulysin A and D was performed as follows: Cells were seeded at 6×10^3 cells per well of 96-well plates in 180 μl complete medium and directly treated with varying concentrations of (pre-)tubulysins diluted in methanol. Each compound was tested in duplicate as well as the internal methanol control. After 5 d incubation, 20 μl of 5 mg/ml MTT (Thiazolyl blue tetrazolium bromide) in PBS was added per well and it was further incubated for 2 h at 37° C. The medium was then discarded and cells were washed with 100 μl PBS before adding 100 μl 2-propanol/10 N HCl (250:1) in order to dissolve formazan granules.
# (§2) The absorbance at 570 nm was measured using a microplate reader (EL808, Bio-Tek Instruments Inc.), and cell viability was expressed as percentage relative to the respective methanol control. IC50 values were obtained by plotting relative growth inhibition in % against the compound concentration on a logarithmic scale. After sigmoidal curve fitting IC50 values can be determined. The IC50[per ml] are shown in the following table (values represent the average of two measurements):
# Similarly cytotoxicity testing of Pretubulysin-related compounds in U-2 OS human osteosarcoma cells was performed and was further compared with AU 339 and AU 954, compounds mentioned in WO2008/106080 and WO2004/046170. The IC50 values are shown in the following table (values represent the average of two measurements): […]
# [2] = tested on: HL-60 cells; test: cells; conditions: for anti-proliferation effects: HL-60, concentrations up to 100 ng/ml
# Experimental: A given number of cells were cultivated in 96-well plates with serial dilutions of the drugs up to 100 ng/ml. Tubulysin A is used as a positive control, whereas methanol is used as a negative control. After 5 days of incubation the metabolic activities of the cells were measured using MTT-assay as described under the methods section.
# The effect of pre-tubulysin 816 and 827 was tested with regard to the growth of other cell lines, including the mouse connective tissues fibroblast L929, the human lung carcinoma cell line A549, the human colon adenocarcinoma cell line SW-480, and the human histiocytic lymphoma cell line U937, in addition to the human myeloid leukemia cell line HL-60.
# [3] = tested on: cancer cell lines; conditions: growth inhibition of cancer cell lines; cited from earlier work
# [4] = tested on: PtK2 cells; assay type: cell-based; conditions: 24 hours incubation
# Experimental: Cell staining: Ptk2 cells were seeded on round glass coverslips (13 mm in diameter) in 4-well plates. Cells were incubated with the drugs to the given times as indicated for each experiment. For staining the microtubules and the nuclei, cells were firstly fixed with cold (−20° C.) acetone/methanol (1:1) for 10 min. For labelling the microtubules, cells were incubated with a primary monoclonal antibody against α-tubulin (1:500 Sigam) for 45 min at 37° C., followed by a secondary anti-mouse IgG antibody conjugated with Alexa488 (1:2000; Molecular probes) under the same incubations conditions. The nuclei were stained with DAPI (1 μg/ml in PBS). The cells were washed with phosphate buffer saline (PBS) between incubations. Coverslips were mounted by using Prolong Antifade (Molecular Probes) and imaged through a fluorescence microscope (LSM-Zeiss) with appropriate filter set.
# Tubulysin A and D are known to induce de-polymerization of the interphase microtubules of mammalian cells and additionally induce a multi-polar spindle pool in mitotic cells (Khalil, M. et al., Chembiochem. 7, 678-683 (2006); Sasse, F., Menche, D. Nat. Chem. Biol. 3, 87-89 (2007)). Here the effect of pre-tubulysin treatment on the morphologies of microtubules and microtubules related structures in PtK2 cells was tested. PtK2 cells were seeded onto glass cover clips in 4 well plates and cultivated for 24 or 48 hours under growth conditions. The cells were then treated with different concentrations of tubulysin A, tubulysin D, pre-tubulysin-816 or pre-tubulysin-827. The control cells were treated only with equivalent amount of methanol (solvent). The cells were thin incubated for further 24 hours before they were fixed as described under the methods section. Fixed cells were then washed with PBS and finally labeled with anti-α-tubulin primary antibodies followed by anti-mouse-alexa-488 secondary antibodies to visualize the microtubules. The nuclei were stained with DAPI.
# [5] = tested on: HL-60; test: cells; assay type: cell-based, human; conditions: HL-60, average of two measurements
# Experimental: as §1
# as §2, with “measurements): […]” for “measurements):”
# [6] = tested on: KB3.1; test: cells; assay type: cell-based, human; conditions: KB3.1, average of two measurements
# Experimental: as §1
# as §2, with “measurements): […]” for “measurements):”
# [7] = tested on: K562; test: cells; assay type: cell-based, human; conditions: K562, average of two measurements
# Experimental: as §1
# as §2, with “measurements): […]” for “measurements):”
# [8] = tested on: HepG2; test: cells; assay type: cell-based, human; conditions: HepG2, average of two measurements
# Experimental: as §1
# as §2, with “measurements): […]” for “measurements):”
# [9] = tested on: SW480; test: cells; assay type: cell-based, human; conditions: SW480, average of two measurements
# Experimental: as §1
# as §2, with “measurements): […]” for “measurements):”
# [10] = tested on: U937; test: cells; assay type: cell-based, human; conditions: U937, average of two measurements
# Experimental: as §1
# as §2, with “measurements): […]” for “measurements):”
# [11] = tested on: A549; test: cells; assay type: cell-based, human; conditions: A549, average of two measurements
# Experimental: as §1
# as §2, with “measurements): […]” for “measurements):”
# [12] = tested on: SH-SY5Y; test: cells; assay type: cell-based, human; conditions: average of two measurements
# Experimental: as §1
# as §2, with “measurements): […]” for “measurements):”
# [13] = tested on: HEK293T; test: cells; assay type: cell-based, human; conditions: average of two measurements
# Experimental: as §1
# as §2, with “measurements): […]” for “measurements):”
# [14] = tested on: A431; test: cells; assay type: cell-based, human; conditions: A431, average of two measurements
# Experimental: as §1
# as §2, with “measurements): […]” for “measurements):”
# [15] = tested on: COS-7; test: cells; assay type: cell-based, African green monkey; conditions: COS-7, average of two measurements
# Experimental: as §1
# as §2, with “measurements): […]” for “measurements):”
# [16] = tested on: L929; test: cells; assay type: cell-based, mouse; conditions: L929, average of two measurements
# Experimental: as §1
# as §2, with “measurements): […]” for “measurements):”
# [17] = tested on: L929; test: Anti-proliferation MTT assay (Example 2, Table 1); assay type: cell-based; conditions: L929 mouse connective tissue fibroblast
# [18] = tested on: U937; test: Anti-proliferation MTT assay (Example 2, Table 1); assay type: cell-based; conditions: U937 human histiocytic lymphoma
# [19] = Homo sapiens, U2OS, comparison with prior art compounds, read-out: IC50
smiles,measurement,setting,value
CCOC(=O)/C(C)=C/[C@H](Cc1ccccc1)NC(=O)c1csc(CC[C@H](C(C)C)N(C)C(=O)[C@@H](NC(=O)[C@H]2CCCCN2C)[C@@H](C)CC)n1 [AU939],IC50,[1]; [19],339 ng/mL
CC[C@H](C)[C@H](NC(=O)[C@H]1CCCCN1C)C(=O)N(C)[C@H](CCc1nc(C(=O)O)cs1)C(C)C [pre-tubulysin-814],anti-proliferation effects,"[2]; 5 days, MTT",no anti-proliferation effects
same,cytotoxic activity,"[2]; at concentration up to 11 μg/ml, listed as Pre-tub-814",did not show any cytotoxic activity
"CC[C@H](C)[C@H](NC(=O)[C@H]1CCCCN1C)C(=O)N(COC(=O)CC(C)C)[C@H](C[C@@H](OC(C)=O)c1nc(C(=O)N[C@@H](Cc2ccccc2)C[C@H](C)C(=O)O)cs1)C(C)C [Tubulysin D, reference compound]",potency relative to tubulysin A,[3],approximately 10 folds
same,concentration for complete de-polymerization (disappearance) of interphase microtubules,[4],50 pg/mL
same,IC50,"[5]; Homo sapiens, read-out: IC50",0.0028 ng/mL
same,IC50,"[6]; Homo sapiens, KB 3-1, read-out: IC50",0.0182 ng/mL
same,IC50,"[7]; Homo sapiens, read-out: IC50",0.0222 ng/mL
same,IC50,"[8]; Homo sapiens, read-out: IC50",0.0066 ng/mL
same,IC50,"[9]; Homo sapiens, read-out: IC50",0.0037 ng/mL
same,IC50,"[10]; Homo sapiens, U-937, read-out: IC50",0.0025 ng/mL
same,IC50,"[11]; Homo sapiens, read-out: IC50",0.0056 ng/mL
same,IC50,"[12]; Homo sapiens, read-out: IC50",0.0113 ng/mL
same,IC50,"[13]; Homo sapiens, HEK-293T, read-out: IC50",0.0104 ng/mL
same,IC50,"[14]; Homo sapiens, A-431, read-out: IC50",0.0119 ng/mL
same,IC50,"[15]; Chlorocebus sabaeus, read-out: IC50",0.0337 ng/mL
same,IC50,"[1]; Homo sapiens, U2OS, read-out: IC50",0.0342 ng/mL
same,IC50,[1]; [19],0.034 ng/mL
same,IC50,"[16]; Mus musculus, read-out: IC50",0.017 ng/mL
"CC[C@H](C)[C@H](NC(=O)[C@H]1CCCCN1C)C(=O)N(COC(=O)CC(C)C)[C@H](C[C@@H](OC(C)=O)c1nc(C(=O)N[C@@H](Cc2ccc(O)cc2)C[C@H](C)C(=O)O)cs1)C(C)C [Tubulysin A, reference compound]",IC50,"[2]; HL-60, serial dilutions up to 100 ng/ml, 5 days, MTT",0.0019 ng/mL
same,IC50 value,[2]; HL-60 human acute myeloid leukemia (Table 1),0.002 ng/mL
same,IC50 value,[17],0.15 ng/mL
same,concentration for complete de-polymerization (disappearance) of interphase microtubules,[4],500 pg/mL
same,IC50,[5],0.0479 ng/mL
same,IC50,[6],0.16 ng/mL
same,IC50,[7],0.40 ng/mL
same,IC50,[8],0.12 ng/mL
same,IC50,[9],0.0187 ng/mL
same,IC50,[10],0.0461 ng/mL
same,IC50,[11],0.0856 ng/mL
same,IC50,[12],0.21 ng/mL
same,IC50,[13],0.0523 ng/mL
same,IC50,[14],0.1002 ng/mL
same,IC50,[15],0.0806 ng/mL
same,IC50,[1],0.19 ng/mL
same,IC50,[1]; comparison with prior art compounds,0.19 ng/mL
same,IC50,[16],0.21 ng/mL
same,IC50 value,[18],0.002 ng/mL
CC[C@H](C)[C@H](NC(=O)[C@H]1CCCCN1C)C(=O)N(C)[C@H](CCc1nc(C(=O)N[C@H](/C=C(\C)C(=O)O)Cc2ccccc2)cs1)C(C)C [AU954],IC50,[1]; [19],82 ng/mL
CC[C@H](C)[C@H](NC(=O)[C@H]1CCCCN1C)C(=O)N(C)[C@H](CCc1nc(C(=O)N[C@@H](Cc2ccccc2)C(=O)O)cs1)C(C)C [pre-tubulysin-815],anti-proliferation effects,"[2]; 5 days, MTT",no anti-proliferation effects
same,IC50,"[2]; Homo sapiens, HL-60",700 ng/mL
CC[C@H](C)[C@H](NC(=O)CN(C)C)C(=O)N(C)[C@H](CCc1nc(C(=O)N[C@H](CCC(=O)O)Cc2ccccc2)cs1)C(C)C [pre-tubulysin-825],anti-proliferation effects,"[2]; 5 days, MTT",no anti-proliferation effects
same,IC50,"[2]; Homo sapiens, HL-60",600 ng/mL
